In US9222137B2, “Method for monitoring minimal residual hairy cell leukemia” (Trovagene, Inc., priority 2011, dated 2015):
“Also recorded” adds a separate entry of the source.

Tests used:
[1] = test system: phosphorylated MEK and ERK in purified primary HCL cells (BRAF V600E); test: Western blot analysis of MEK and ERK phosphorylation in purified HCL cells incubated in vitro with BRAF inhibitor; type: cell-based, human; conditions: primary leukemic HCL cells; 250 nM, 500 nM or 1000 nM (≦1 μM); 2, 6 and 24 h incubation; vs vehicle (DMSO)
Method: Fresh leukemic cells purified from the peripheral blood of 5 patients with HCL were seeded in triplicate (2 to 3×10^5 cells/well, depending on the patient) in 96-well flat-bottom plates, and left recovering by overnight incubation at 37° C. and 5% CO2 in cell culture medium (RPMI1640 with 10% fetal bovine serum, glutamine and antibiotics). […] DMSO (the drug vehicle) was added in parallel wells as control. Cells were then harvested at different time points (2 h, 6 h and 24 h), washed 3 times in PBS, lysed in Laemmli sample buffer and boiled at 95° C. for 5 minutes. […] Protein lysates (6 to 7.5×10^4 fresh cell equivalent, depending on the patient; 2×10^5 frozen cell equivalent) were separated by SDS-polyacrylamide gel electrophoresis (SDS-PAGE) on pre-cast electrophoresis gels (12% Resolving gel cat. 456-1043 or Any kD Resolving Gel cat. 456-9036, Biorad), transferred to a 0.45 um pore size nitrocellulose transfer membrane (Whatman GmbH, Dassel, Germany), and probed with specific primary antibodies directly or after stripping (with Restore Western Blot Stripping Buffer, Pierce/Thermo Scientific cat. 21059). The anti-phospho-ERK1/2 (clone D13.14.4E; 1:2000 dilution), anti-phospho-MEK1/2 (clone 166F8; 1:1000 dilution), anti-ERK1/2 (clone 137F5; 1:1000 dilution) rabbit monoclonal antibodies and the anti-MEK1/2 (clone L38C12; 1:1000 dilution) mouse monoclonal antibody were all from Cell Signaling Technology. Upon incubation with horseradish peroxidase-conjugated secondary antibodies (GE Healthcare Lifesciences, Uppsala, Sweden), polypeptides were visualized using an enhanced chemiluminescence (ECL) western blot detection kit according to the manufacturer's instruction (GE Healthcare Lifesciences). Protein lysates (3×10^4 to 2×10^5 cell equivalent, depending on the experiment) from either serum-starved (45 min at 37° C. and 5% CO2 in RPMI1640) or unstarved human leukemic T-cell line Jurkat cells were used as negative and positive control, respectively, for ERK1/2 and MEK1/2 phosphorylation.
Membranes were probed with antibodies against phospho-ERK, phosphoMEK, total ERK and total MEK, as indicated on the far right. Protein lysates from either serum-starved or unstarved human leukemic Jurkat T cell line cells were used as negative (−) and positive (+) control, respectively, for ERK and MEK phosphorylation.

hairy cell leukemia = test: Case report: index HCL patient treated with pentostatin; type: in vivo, human
From the text: Splenomegaly was present. […] At immunohistochemistry, leukemic cells were positive for CD20, DBA44, CD68 and Annexin-A1; expression of CD20, CD11c, CD25 and CD103 was documented by flow cytometry.

Structure (SMILES)	phosphorylation of ERK (phospho-ERK, Western blot) [1]	phosphorylation of MEK (phospho-MEK, Western blot) [1]	clinical outcome after therapy (hairy cell leukemia)
CCCS(=O)(=O)Nc1ccc(F)c(C(=O)c2c[nH]c3ncc(Cl)cc23)c1F [PLX-4720]	dose-dependent dephosphorylation; also recorded: marked decrease	dose-dependent dephosphorylation; also recorded: marked decrease	
OC[C@H]1O[C@@H](n2cnc3c2NC=NC[C@H]3O)C[C@@H]1O [pentostatin]			complete hematological remission
